Measured values reported in patent US7098219B2, “Inhibitors of cellular efflux pumps of microbes” (Wockhart Limited, priority 2000, dated 2006).

Tests used:
Assay type in all cases: cell-based
[1] = system: Pseudomonas aeruginosa 23587; test: Antibiotic diffusion assay, levofloxacin plate versus water control plate; conditions: zone of inhibition in levofloxacin (5 mcg/ml) plate minus water control plate; Mueller Hinton Agar, 35° C. 20 hours
Description: Testing method for Inhibition of the Efflux Pumps of Pseudomonas aeruzinosa 23587, E. coli 2051, Streptococcus pneumoniae 3514 and Streptococcus pyozenus 26-00
Antibiotic Diffusion Assay
The activity of efflux pump inhibitor was also assessed using an antibiotic diffusion assay. For this assay Pseudomonas aeruginosa 23587 is used. Pseudomonas aeruginosa 23587 is a clinical isolate containing multiple efflux pumps which can be mexAB, mexCD, mexEF but not limited to mex classification only. Pseudomonas aeruginosa are grown in tryptic soya broth for 20 hours at 35° C. Two antibiotic assay plates are prepared in Mueller Hinton Agar using above inoculum. The bacterial count in a plate is 1×10^6 cells/ml. In one of the plates, levofloxacin is incorporated at 5 mcg/ml, while in the control plate an equivalent amount of water is added. […]. The plates are incubated at 35° C. for 20 hours and the zone of inhibition was recorded in mm (table 2). The difference in the diameter of zone of inhibition was calculated by subtracting from the diameter of the zone of inhibition in the levofloxacin containing plate the diameter of the zone of inhibition in the water containing control plate. Example, if the diameter of the zone of inhibition in the levofloxacin plate is X mm and the diameter of the zone of inhibition in the control plate is Y mm, the difference Z=X−Y and is a measure of the activity of the efflux pump inhibitor.

[2] = system: Mef Efflux Pump of Streptococcus pneumoniae 3514 and Streptococcus pyogenes 26-00; test: Two plate diffusion assay for macrolide (Mef) efflux pump inhibitors, azithromycin plate versus control plate; conditions: zone of inhibition in antibiotic plate (method: azithromycin 0.5 mcg/ml; footnote: levofloxacin) minus water control plate; strain not given
[3] = system: Staphylococcus aureus 1199 B NorA+; conditions: combination with ciprofloxacin, broth microdilution checkerboard, 35° C. 20 hours; FIC index ≦0.5 synergistic, 0.5–2.0 additive, >2.0 antagonistic
How it was run: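 Broth microdilution checkerboard with ciprofloxacin against S. aureus 1199B NorA+, pump inhibitor titrated along one axis; inoculum 5×10^5 CFU/ml in Mueller Hinton broth, 35 °C for 20 hours. Growth read by visible turbidity, confirmed by plate reader; FIC index derived from inhibitor MIC in combination versus alone.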

| Molecule | Difference in Zone diameter Z1 (mm) [1] [mm] | Difference in Zone diameter Z1 (mm) [2] [mm] | FIC INDEX [3] |
| --- | --- | --- | --- |
| C[C@@H]1CCc2c(N3CCC(OC(=O)[C@H](N)Cc4ccccc4)CC3)c(F)cc3c(=O)c(C(=O)O)cn1c23.Cl (racemic) [Example 26 (P. aeruginosa), (RS)-(±)-9-Fuoro-6,7-dihydro-8-{4′-(D-phenylalaninoxy)piperidin-1-yl}-5-methyl-1-oxo-1H,5H-benzo[i,j]quinolizine-2-carboxylic acid hydrochloride] | 12 | – | – |
| CC1CCc2c(N3CCC(OC(=O)[C@@H](N)CC(=O)O)CC3)c(F)cc3c(=O)c(C(=O)O)cn1c23.Cl (mixture of isomers) [Example 27 (P. aeruginosa), (RS)-(±)-9-Fluoro-6,7-dihydro-8-4′-(L-ot-aspartyloxy)piperidin-1-yl]-5-methyl-1-oxo-1H,5H-benzo[i,j]quinolizine-2-carboxylic acid hydrochloride] | 11 | 6 | – |
| CC1CCc2c(N3CC[C@@H](O)[C@H](C)C3)c(F)cc3c(=O)c(C(=O)O)cn1c23 (mixture of isomers) [Example 33 (P. aeruginosa), (RS)-(+)-9-Fluoro-6,7-dihydro-8-(trans-4′-hydroxy-3′-methylpiperidin-1-yl)-5-methyl-1-oxo-1H,5H-benzo[i,j]quinolizine-2-carboxylic acid] | 6 | – | – |
| CC1CN(c2c(F)cc3c(=O)c(C(=O)O)cn4c3c2CCC4C)CCC1O (racemic) [Example 34 (P. aeruginosa), (RS)-(+)-9-Fluoro-6,7-dihydro-8-(cis-4′-hydroxy-3′-methylpiperidin-1-yl}-5-methyl-1H,5H-benzo[i,j]quinolizine-2-carboxylic acid] | 6 | – | – |
| COC1CCN(c2cc3c(c(C)c2F)c(=O)c(C(=O)O)cn3C2CC2)CC1 [Example 1 (P. aeruginosa), 1-Cyclopropyl-6-fluoro-1,4-dihydro-5-methyl-7-(4′-methoxypiperidin-1-yl)-4-oxo-quinoline-3-carboxylic acid] | 13 | – | – |
| CCn1cc(C(=O)O)c(=O)c2cc(F)c(N3CC4C(N)C4C3)c(F)c21 (centres unmarked) [Example 4 (NorA), 1-Ethyl-6,8-difluoro-1,4-dihydro-7-{(1∝,5∝,6∝)-6-amino-3-azabicyclo[3.1.01]-hex-3-yl}-4-oxo-quinoline-3-carboxylic acid] | 7 | – | 0.192 |
| COc1c(N2CCC(N)C(C)C2)c(F)c(N)c2c(=O)c(C(=O)O)cn(C3CC3)c12 (centres unmarked) [Example 4 (P. aeruginosa), 5-Amino-1-cyclopropyl-6-fluoro-8-methoxy-1,4-dihydro-7-(4′-amino-3′-methylpiperidin-1-yl)-4-oxo-quinoline-3-carboxylic acid] | 5 | – | – |
| CCNC1CCN(c2c(F)c(N)c3c(=O)c(C(=O)O)cn(C4CC4)c3c2OC)CC1(C)C (centres unmarked) [Example 5 (P. aeruginosa), 5-Amino-1-cyclopropyl-6-fluoro-8-methoxy-1,4-dihydro-7-{3′,3′-dimethyl-4′-ethylaminopiperidin-1-yl}-4-oxo-quinoline-3-carboxylic acid] | 3 | – | – |
| COc1c(N2CCC(N(C)C)CC2)c(F)cc2c(=O)c(C(=O)O)cn(C3CC3)c12 [Example 7 (P. aeruginosa), 1-Cyclopropyl-6-fluoro-8-methoxy-1,4-dihydro-7-{4′-dimethylaminopiperidin-1-yl}-4-oxo-quinoline-3-carboxylic acid] | 5 | – | – |
| COc1c(N2CCC(C)(O)CC2)c(F)cc2c(=O)c(C(=O)O)cn(C3CC3)c12 [Example 8 (P. aeruginosa), 1-Cyclopropyl-6-fluoro-8-methoxy-1,4-dihydro-7-(4′-hydroxy-4′-methylpiperidin-1-yl)-4-oxo-quinoline-3-carboxylic acid] | 5 | – | – |
| NCC1CN(c2c(F)c(N)c3c(=O)c(C(=O)O)cn(C4CC4)c3c2F)CCC1O (centres unmarked) [Example 11 (P. aeruginosa), 5-Amino-1-(cyclopropyl)-6,8-difluoro-1,4-dihydro-7-(3′-aminomethyl-4′-hydroxy-piperidin-1-yl)-4-oxo-quinoline-3-carboxylic acid] | 3 | – | – |
| CCN1CCN(c2cc3c(cc2F)c(=O)c(C(=O)O)cn3C2CC2)CC1C (centres unmarked) [Example 13 (P. aeruginosa), 1-Cyclopropyl-6-fluoro-1,4-dihydro-7-(4′-ethyl-3′-methylpiperazin-1-yl)-4-oxo-quinoline-3-carboxylic acid] | 4 | – | – |
| CCN1C(C)CN(c2cc3c(cc2F)c(=O)c(C(=O)O)cn3C2CC2)CC1C (centres unmarked) [Example 16 (NorA), 1-Cyclopropyl-6-fluoro-1,4-dihydro-7-(3′,5′-dimethyl-4′-ethylpiperazin-1-yl)-4-oxo-quinoline-3-carboxylic acid] | 8 | – | 0.314 |
| Nc1c(F)c(N2CCC(N)C2)c(F)c2c1c(=O)c(C(=O)O)cn2-c1ccc(F)cc1F (centres unmarked) [Example 16 (P. aeruginosa), 5-Amino-1-(2′,4′-difluorophenyl)-6,8-difluoro-1,4-dihydro-7-(3-aminopyrrolidine-1-yl)-4-oxo-quinoline-3-carboxylic acid] | 3 | – | – |
| CCOC(=O)C1(N)CCN(c2c(F)c(N)c3c(=O)c(C(=O)O)cn(C4CC4)c3c2F)C1 (centres unmarked) [Example 17 (P. aeruginosa)] | 8 | – | – |
| CCC1CN(c2nc3c(cc2F)c(=O)c(C(=O)O)cn3C2CC2)CCC1N (centres unmarked) [Example 20 (P. aeruginosa), 1-Cyclopropyl-6-fluoro-1,4-dihydro-7-(4′-amino-3′-ethylpiperidin-1-yl)-4-oxo-naphthyridine-3-carboxylic acid] | 6 | – | – |
| COc1c(N2CCC(O)C(C)(C)C2)c(F)cc2c(=O)c(C(=O)O)cn(C3CC3)c12 (centres unmarked) [Example 21 (NorA), 1-Cyclopropyl-6-fluoro-8-methoxy-1,4-dihydro-7-(4′-hydroxy-3′,3′-dimethylpiperidin-1-yl)-4-oxo-quinoline-3-carboxylic acid] | 8 | – | 0.264 |
| Cc1c(F)c(N2CCC(O)C(CN)C2)c(F)c2c1c(=O)c(C(=O)O)cn2C1CC1 (centres unmarked) [Example 25 (NorA), 1-Cyclopropyl-6,8-difluoro-5-methyl-1,4-dihydro-7-(4′-hydroxy-3′-aminomethylpiperidin-1-yl)-4-oxo-quinoline-3-carboxylic acid] | 5 | – | 0.192 |
| C[C@H](N)C(=O)OC1CCN(c2c(F)cc3c(=O)c(C(=O)O)cn4c3c2CC[C@@H]4C)CC1.Cl [Example 30 (P. aeruginosa), (S)-(−)-9-Fluoro-6,7-dihydro-8-{4′-(L-alanyloxy)piperidin-1-yl}-5-methyl-1-oxo-1H,5H-benzo[i,j]quinolizine-2-carboxylic acid hydrochloride] | 9 | – | – |
| CCC1CN(c2c(F)cc3c(=O)c(C(=O)O)cn4c3c2OCC4C)CCC1O (centres unmarked) [Example 36 (P. aeruginosa), 7H-Pyrido[1,2,3-de]-1,4-benzoxazine-9-fluoro-2,3-dihydro-3-methyl-10-(4′-hydroxy-3′-ethylpiperidin-1′-yl)-7-oxo-6-carboxylic acid] | 5 | 5 | – |
| O=C(O)c1cn(C2CC2)c2nc(NC3CCNC3)c(F)cc2c1=O (centres unmarked) [Example 49 (NorA), 1-Cyclopropyl-6-fluoro-1,4-dihydro-7-(pyrrolidin-3-yl-amino)-4-oxo-1,8naphthyridine-3-carboxylic acid] | 6 | – | 0.188 |
| O=C(O)c1cn(-c2ccc(F)cc2F)c2nc(NC3CCNCC3)c(F)cc2c1=O [Example 50 (NorA), 1-(2′,4′-Difluorophenyl)-6-fluoro-1,4-dihydro-7-(piperidin-4-yl-amino)-4-oxo-1,8-naphthyridine-3-carboxylic acid] | 6 | – | 0.314 |
| (RS)-(±)-6,7-dihydro-8-(cis-4′-hydroxy-3′-methylpiperidin-1-yl)-5-methyl-1-oxo-1H,5H-benzo[i,j]quinolizine-2-carboxylic acid [Example 42 (Mef)] | – | 8 | – |
| (S)-(−)-9-Fluoro-6,7-dihydro-8-(4′-hydroxypiperidin-1-yl)-5-methyl-1-oxo-1H,5H-benzo[i,j]quinolizine-2-carboxylic acid. (L) histidine salt [Example 25 (P. aeruginosa)] | 5 | – | – |
